{"source": "patent US10543503B1", "about": "“Methods of delivery of encapsulated perfluorocarbon taggants” (Copilot Ventures Fund III LLC, priority 2011, dated 2020)", "origin": "cited, not measured here", "key": {"[1]": {"system": "cytochrome P-450 IIA1 and IIA2 (a.k.a. cytochrome P450b and cytochrome P450e)", "details": "rats, following PFD treatment"}, "aldrin-epoxidase": {"system": "aldrin-epoxidase", "details": "rats, following PFD treatment"}, "[2]": {"system": "benzphetamine-N-demethylase", "details": "rats, following PFD treatment"}, "[3]": {"system": "cytochrome P-450 IA1 and IA1", "details": "rats, following PFD treatment; enzymes induced by 3-methylcholanthrene-type inducers"}, "cytochrome P-450": {"system": "cytochrome P-450", "details": "PFD given to rats; hepatic metabolizing enzymes"}, "cytochrome P450 IV": {"system": "cytochrome P450 IV", "details": "rats, following PFD treatment; enzyme induced by fatty acids and perfluoronated fatty acids"}}}
{"smiles": "FC1(F)C(F)(F)C(F)(F)C2(F)C(F)(F)C(F)(F)C(F)(F)C(F)(F)C2(F)C1(F)F", "note": "(stereo not drawn) [PFD, perfluorodecalin]", "values": [{"measurement": "increase of activities of cytochrome P-450 IIA1 and IIA2", "setting": "[1]", "result": "approximately two-fold"}, {"measurement": "activity of aldrin-epoxidase", "setting": "aldrin-epoxidase", "result": "increased"}, {"measurement": "activity of benzphetamine-N-demethylase", "setting": "[2]", "result": "increased"}, {"measurement": "activities of cytochrome P-450 IA1 and IA1", "setting": "[3]", "result": "unaffected"}, {"measurement": "induction of cytochrome P-450", "setting": "cytochrome P-450", "result": "induce cytochrome P-450 in a manner similar to phenobarbital"}, {"measurement": "activity of cytochrome P450 IV", "setting": "cytochrome P450 IV", "result": "unaffected"}]}
